# Results as given in article PMC4122355, “Inhibitor of the Tyrosine Phosphatase STEP Reverses Cognitive Deficits in a Mouse Model of Alzheimer's Disease” (PLoS Biology, 2014).
# What was measured:
# [1] = system: GluN2B (Y1472), Pyk2 (Y402), ERK1/2 (Y204/187) in cortical neurons; experiment: Tyr phosphorylation of STEP substrates in cortical neuronal cultures (Western blot); format: cell-based, rat; conditions: 1 µM dose, 1 h, relative to vehicle
# Procedure: (§1) Primary cortical neurons were isolated from Sprague Dawley rat embryos (E18) (Charles River Laboratories, Wilmington, MA) as previously described. In some experiments, cortical neurons were made from WT and STEP KO mouse embryos (E18). Neurons were allowed to grow for 18–21 d in CO2 incubator before addition of compounds at indicated doses for 1 h. Immediately following treatments, neurons were lysed in RadioImmuno Precipitation Assay (RIPA) buffer supplied with protease inhibitor cocktail (Roche Applied Science, Indianapolis, IN) and phosphatase inhibitors (NaF and Na3VO4). All experiments were replicated four times with four independent batches of cultures.
# (§2) Samples were prepared and resolved by SDS-PAGE, transferred to nitrocellulose membrane, and incubated with phospho-specific antibodies (anti-pY^204/187 ERK1/2, anti-pY^402 Pyk2, anti-pY^1472 GluN2B) or total protein antibodies (anti-ERK2, anti-Pyk2, and anti-NR2B) overnight at 4°C. Immunoreactivity was visualized using a Chemiluminescent substrate kit (Pierce Biotechnology, Rockford, IL) and detected using a G:BOX with the image program GeneSnap (Syngene, Cambridge, UK). All densitometric quantifications were performed using the Genetools program.
# [2] = system: GluN2B Y1472, Pyk2 Y402, ERK1/2 Y204/187 in WT and STEP KO cortical neurons; experiment: Tyr phosphorylation of STEP substrates in WT and STEP KO mouse cortical cultures; format: cell-based; conditions: 1 h
# Procedure: as §1, §2
# STEP = biological target: T1, STEP (Mus musculus, UniProt P54830); experiment: Dialysis of TC-2153-inhibited STEP; format: biochemical; conditions: after 24 h of dialysis
# T1 sequence (P54830 1-541): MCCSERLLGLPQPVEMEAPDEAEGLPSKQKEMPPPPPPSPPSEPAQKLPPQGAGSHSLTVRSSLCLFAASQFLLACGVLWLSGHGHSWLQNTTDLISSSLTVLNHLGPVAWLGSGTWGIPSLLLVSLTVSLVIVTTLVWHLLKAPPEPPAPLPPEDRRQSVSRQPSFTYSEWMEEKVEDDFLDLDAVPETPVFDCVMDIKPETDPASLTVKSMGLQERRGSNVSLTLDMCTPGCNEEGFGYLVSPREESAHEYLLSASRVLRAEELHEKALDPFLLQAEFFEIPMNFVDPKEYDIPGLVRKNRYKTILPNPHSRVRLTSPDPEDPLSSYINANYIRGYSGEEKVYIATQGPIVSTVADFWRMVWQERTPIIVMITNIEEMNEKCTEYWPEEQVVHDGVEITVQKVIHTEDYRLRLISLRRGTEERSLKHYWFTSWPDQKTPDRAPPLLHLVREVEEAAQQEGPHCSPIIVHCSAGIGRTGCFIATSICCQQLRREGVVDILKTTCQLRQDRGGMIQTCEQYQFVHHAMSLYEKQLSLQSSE
# Procedure: The samples were shaken at room temperature for 1 h to inhibit STEP. Each sample was then transferred to a separate Thermo Scientific Slide-A-Lyzer dialysis cassette with a 10,000 MW cutoff and 0.5–3.0 mL sample volume and was dialyzed into 1 L of 1× assay buffer over 24 h in a 4°C cold room. Aliquots of approximately 100 µL were removed from the dialysis cassette at 0, 4, and 24 h time points. Protein concentration was determined by reading absorbance at 280 nm compared to a standard curve for STEP. The samples were diluted to 100 nM in 100 µL of 1× assay buffer. […] The initial rate data collected were used to determine enzyme activity standardized to the DMSO control zero time point.
# [3] = Stability in imidazole buffer by 19F NMR; format: physicochemical; conditions: 1 h
# Procedure: The tube was allowed to incubate at ambient temperature with shaking for 1 h. The mixture was diluted with 150 µL of DMSO-d6 and transferred to an NMR tube containing a capillary of trifluoroacetic acid as an external standard (−76.55 ppm). The stability of the compound in the buffer was confirmed by observing no differences in the sensitive ^19F-NMR spectra (Figure S4). As a control for compound modification, the experiment was repeated with the addition of 1 mM GSH in the incubation buffer.
# 3xTg-AD and WT mice [4] = experiment: Y-maze alternation task; format: in vivo, mouse; conditions: 10 mg/kg i.p. 3 h prior
# Procedure: The Y-maze apparatus consisted of three dark gray arms (42×4.8×20 cm). […] The total number of arm entries was recorded, as was the number of entries representing alternation behavior (i.e., sequential entry into all three arms). All four paws of the mouse had to enter an arm for it to count as an arm entry. Percentage spontaneous alternation = (number of alternations)/(total arm entries – 2). […] A total number of 20 WT and 11 AD mice were used in the Y-maze task.
# 3xTg-AD and WT mice [5] = experiment: Morris water maze (MWM), reference memory version; format: in vivo, mouse
# Procedure: The reference memory version of the MWM task was performed as described previously. A crossover design was not used in the MWM task, as the mice were randomly assigned to each treatment condition and can be exposed to the task only once. Briefly, animals were trained to swim in a 1.4 m diameter pool to find a submerged platform (14 cm in diameter) located 1 cm below the surface of water (24°C), rendered opaque by the addition of nontoxic white paint. Animals were pseudo-randomly started from a different position at each trial and used distal visual-spatial cues to find the hidden escape platform that remained in the center of the same quadrant throughout all training days. Training measures included escape latency to reach the platform, swim speed, and thigmotaxis. […] At 24 h after the acquisition phase, the platform was removed and a probe trial of 90 s was given to evaluate the number of entries in a circular zone (three times the platform diameter) positioned around the previous platform location (target zone) and in the opposite quadrants. To assess visual deficits and motivation to escape from water, the probe test was followed by a cued task (60 s; three trials per animal) during which the platform was visible. The visible platform was moved to different locations between each trial. After each trial, animals were immediately placed under a warming lamp to dry to prevent hypothermia. […] Behavioral data from training, probe, and cued trials were acquired and analyzed using the ANY-maze automated tracking system (Stoelting, IL, USA).
# mice = system: mice; set-up: method as in earlier work; conditions: cited from earlier work
# [6] = cited from earlier work
smiles,measurement,setting,value
"Cl.Nc1cc(C(F)(F)F)cc2c1SSSSS2 [TC-2153, 8-(trifluoromethyl)-1,2,3,4,5-benzopentathiepin-6-amine hydrochloride]","pERK1/2 (Y204/187), phospho-signal normalized to total protein and GAPDH",[1],2.39±0.18
same,"pGluN2B (Y1472), phospho-signal normalized to total protein and GAPDH",[1],2.07±0.15
same,"pPyk2 (Y402), phospho-signal normalized to total protein and GAPDH",[1],1.81±0.21
same,Tyr phosphorylation of STEP substrates in STEP KO cortical cultures,"[2]; STEP KO cultures, TC-2153 0.1 and 1 µM, Na3VO4 1 mM",failed to increase the phosphorylation of STEP substrates
same,Tyr phosphorylation of STEP substrates in WT mouse cortical neurons,"[2]; WT cultures, 0.1 and 1 µM",an increase in the Tyr phosphorylation of STEP substrates
same,STEP activity after dialysis (reversibility),STEP,STEP remained inhibited
same,Stability with GSH (19F NMR),[3]; 1 mM GSH in pH 7.0 imidazole buffer,compound modification clearly observed
same,Stability in assay conditions (19F NMR),[3]; pH 7.0 imidazole buffer,stable and did not degenerate in the assay conditions
same,Y-maze arm entries (general motor activity),3xTg-AD and WT mice [4],no significant change in arm entries
same,"Y-maze percentage spontaneous alternation, WT mice","3xTg-AD and WT mice [4]; WT mice, vehicle 74.98±2.19",73.45±3.19
same,"MWM probe trial, target zone","3xTg-AD and WT mice [5]; 3xTg-AD mice, 24 h after last acquisition day",spent as much time as WT mice in the target zone
same,MWM acquisition phase escape latency,"3xTg-AD and WT mice [5]; 3xTg-AD mice, daily injection 3 h prior to training, days 5 and 6",reversed memory deficits
same,"MWM cued trial escape latency, AD mice","3xTg-AD and WT mice [5]; AD-TC, visible platform, AD-Veh 15.3±3.0",16.0 ± 2.3 s
same,"MWM cued trial escape latency, WT mice","3xTg-AD and WT mice [5]; WT-TC, visible platform, WT-Veh 15.1±1.7",15.6 ± 1.7 s
same,Behavioural effects taken as evidence of crossing the blood brain barrier,mice,anxiolytic and anticonvulsant effects
same,Solubility in aqueous solution,[6],reasonable solubility in aqueous solution
